# Measurements taken from patent US20240327463A1, “ANTIBACTERIAL PRODUCTS” (priority 2017, published 2024).
# Bridge positions count the residues as written; N and C are the ends. Square brackets hold non-standard residues; d marks the D form. Peptide text beside a SMILES is read from it. ξ: configuration not given here. dNMeF = CN[C@H](Cc1ccccc1)C(=O)O; Ile(3ξ) = CCC(C)[C@H](N)C(=O)O; Nva = CCC[C@H](N)C(=O)O
# Assays:
# [1] = test system: MRSA DM21455 (eye); assay: microbe, parasite or virus in culture; conditions: DM21455 (eye)
# Protocol: (§1) For MIC testing all peptides were dissolved in DMSO (according to the method of L. L. Ling, et al., Nature 2015, 517, 455-459). Bacteria were grown on Mueller Hinton broth (oxoid). All incubations were at 37° C. Dilutions were carried out using Mueller Hinton. 100 μl of autoclaved Mueller Hinton broth was added to wells 2-12 on a 96-well plate. 200 μl of the peptide was added to well one at a concentration of 512 μg/ml. 100 μl of peptide in well one was taken up and pipetted into well two. The mixture was then mixed via pipetting before 100 μl was taken up and pipetted into well three. This process was repeated up to well 11. […] This was repeated three times. The 96-well plates were then incubated for 24 hours. The MIC was determined to be the lowest concentration at which there was no growth visible.
# [2] = test system: VRE ATCC 700802; assay: microbe, parasite or virus in culture; conditions: ATCC 700802
# Protocol: as §1
# [3] = test system: MRSA DR 42412 (sputum); assay: microbe, parasite or virus in culture; conditions: DR 42412 (sputum)
# Protocol: as §1
# [4] = test system: MRSA ATCC 700699; assay: microbe, parasite or virus in culture; conditions: ATCC 700699
# Protocol: as §1
# [5] = test system: Staphylococcus aureus ATCC 29213; assay: microbe, parasite or virus in culture; conditions: ATCC 29213
# Protocol: as §1
# [6] = test system: VRE ATCC 29212; assay: microbe, parasite or virus in culture; conditions: ATCC 29212
# Protocol: as §1
# [7] = test system: MRSA ATCC 33591; conditions: for MIC (MRSA) / MIC (MRSA*): ATCC 33591
# Protocol: as §1
# [8] = test system: Bacillus Subtilis ATCC 6633; type: cell-based
# Protocol: (§2) Bacteria were grown on Mueller Hinton broth (oxoid). All incubations were at 37° C. Dilutions were carried out using Mueller Hinton. […] This process was repeated up to well 11. […] This was repeated three times. […] Results are tabulated in the Examples.
# [9] = test system: Staphylococcus saprophyticus ATCC 15305; type: cell-based; conditions: ATCC 15305
# Protocol: as §2
# [10] = test system: Staphylococcus saprophyticus ATCC 49453; type: cell-based; conditions: ATCC 49453
# Protocol: as §2
# [11] = test system: SE12228; type: cell-based
# Protocol: as §2
# [12] = test system: Staphylococcus saprophyticus ATCC 49907; type: cell-based; conditions: ATCC 49907
# Protocol: as §2
# [13] = test system: Bacillus Cereus ATCC 11788; type: cell-based
# Protocol: as §2
# [14] = test system: Staphylococcus saprophyticus ATCC BAA 750; type: cell-based; conditions: ATCC BAA 750
# Protocol: as §2
# [15] = test system: MRSA 1003; type: cell-based, Staphylococcus aureus
# Protocol: as §2
# [16] = test system: VRE 1002; type: cell-based, Enterococcus faecalis
# Protocol: as §2
# [17] = test system: VRE 1004; type: cell-based, Enterococcus faecalis
# Protocol: as §2
# [18] = test system: VRE 1001; type: cell-based, Enterococcus faecalis
# Protocol: as §2
# [19] = test system: VRE 1008; type: cell-based, Enterococcus faecalis
# Protocol: as §2
compound,measurement,setting,value
"CC[C@@H](C)[C@@H](NC(=O)[C@@H](CCC(N)=O)NC(=O)[C@H](CCCNC(=N)N)NC(=O)[C@@H](NC(=O)[C@@H](Cc1ccccc1)NC)[C@@H](C)CC)C(=O)N[C@H](C(=O)N[C@@H](CO)C(=O)N[C@H]1C(=O)N[C@@H](CCCNC(=N)N)C(=O)N[C@@H](CC(C)C)C(=O)N[C@@H]([C@@H](C)CC)C(=O)O[C@H]1C)[C@@H](C)CC [Compound 29, Arg3-Arg9-Leu10-teixobactin] (H-[dNMeF]IR[dQ][dI]IS[dT]RLI; ester 8-C)",MIC,[1],1 µg/mL
same,MIC,[2],1 µg/mL
same,MIC,[3],0.25 µg/mL
same,MIC,[4],1 µg/mL
same,MIC,[5],1 µg/mL
same,MIC,[6],1 µg/mL
same,MIC against MRSA ATCC 33591,[7]; MRSA ATCC 33591,1 µg/mL
same,MIC,[8],<0.0625 µg/mL
same,MIC,[9],<0.0625 µg/mL
same,MIC,[10],<0.0625 µg/mL
same,MIC,[11],<0.0625 µg/mL
same,MIC,[12],<0.0625 µg/mL
same,MIC,[13],1 µg/mL
same,MIC,[14],<0.0625 µg/mL
same,MIC,[15],2 µg/mL
same,MIC,[16],1 µg/mL
same,MIC,[17],0.5 µg/mL
same,MIC,[18],0.5 µg/mL
same,MIC,[19],0.5 µg/mL
"CCCCCCCCCC(=O)N[C@@H](Cc1c[nH]c2ccccc12)C(=O)N[C@H](CC(N)=O)C(=O)N[C@@H](CC(=O)O)C(=O)N[C@@H]1C(=O)NCC(=O)N[C@@H](CCCN)C(=O)N[C@@H](CC(=O)O)C(=O)N[C@H](C)C(=O)N[C@@H](CC(=O)O)C(=O)NCC(=O)N[C@H](CO)C(=O)N[C@@H]([C@H](C)CC(=O)O)C(=O)N[C@@H](CC(=O)c2ccccc2N)C(=O)O[C@@H]1C [Daptomycin, reference compound]",MIC,[1],<0.0625 µg/mL
same,MIC,[2],0.25 µg/mL
same,MIC,[3],<0.0625 µg/mL
same,MIC,[4],0.25 µg/mL
same,MIC,[6],0.25 µg/mL
"CCC(C)[C@@H]1NC(=O)[C@H](C)NC(=O)[C@H](NC(=O)[C@H](CO)NC(=O)[C@@H](NC(=O)[C@H](NC(=O)[C@@H](CCC(N)=O)NC(=O)[C@H](CCCNC(=N)N)NC(=O)[C@@H](NC(=O)[C@@H](Cc2ccccc2)NC)[C@@H](C)CC)[C@H](C)CC)[C@@H](C)CC)[C@H](C)OC(=O)[C@H]([C@@H](C)CC)NC1=O (stereo partly drawn) [Compound 32, Arg3-Ile10-teixobactin] (H-[dNMeF]IR[dQ][dI]IS[dT]A[Ile(3ξ)]I; ester 8-C)",MIC,[1],0.25 µg/mL
same,MIC,[2],1 µg/mL
same,MIC,[3],0.125 µg/mL
same,MIC,[4],1 µg/mL
same,MIC,[5],0.5 µg/mL
same,MIC,[6],1 µg/mL
same,MIC (MRSA),[7],0.25 µg/mL
same,MIC,[8],<0.0625 µg/mL
same,MIC,[9],<0.0625 µg/mL
same,MIC,[10],<0.0625 µg/mL
same,MIC,[11],<0.0625 µg/mL
same,MIC,[12],<0.0625 µg/mL
same,MIC,[13],0.125 µg/mL
same,MIC,[14],<0.0625 µg/mL
same,MIC,[15],0.125 µg/mL
same,MIC,[16],1 µg/mL
same,MIC,[17],1 µg/mL
same,MIC,[18],1 µg/mL
same,MIC,[19],1 µg/mL
"CCC(C)[C@@H]1NC(=O)[C@H](C)NC(=O)[C@H](NC(=O)[C@H](CO)NC(=O)[C@@H](NC(=O)[C@H](NC(=O)[C@@H](CCCNC(=N)N)NC(=O)[C@H](CO)NC(=O)[C@@H](NC(=O)[C@@H](Cc2ccccc2)NC)[C@@H](C)CC)[C@H](C)CC)[C@@H](C)CC)[C@H](C)OC(=O)[C@H]([C@@H](C)CC)NC1=O (stereo partly drawn) [Compound 33, D-Arg4-Ile10-teixobactin]",MIC,[1],0.03125 µg/mL
same,MIC,[2],0.25 µg/mL
same,MIC,[3],<0.0625 µg/mL
same,MIC,[4],0.25 µg/mL
same,MIC,[5],0.0625 µg/mL
same,MIC,[6],0.25 µg/mL
same,MIC (MRSA),[7],0.125 µg/mL
same,MIC,[8],<0.0625 µg/mL
same,MIC,[9],<0.0625 µg/mL
same,MIC,[10],<0.0625 µg/mL
same,MIC,[11],<0.0625 µg/mL
same,MIC,[12],<0.0625 µg/mL
same,MIC,[13],<0.0625 µg/mL
same,MIC,[14],<0.0625 µg/mL
same,MIC,[15],<0.0625 µg/mL
same,MIC,[16],1 µg/mL
same,MIC,[17],0.5 µg/mL
same,MIC,[18],0.5 µg/mL
same,MIC,[19],0.5 µg/mL
CC[C@@H](C)[C@@H](NC(=O)[C@@H](CCC(N)=O)NC(=O)[C@H](CO)NC(=O)[C@@H](NC(=O)[C@@H](C)NC(C)=O)[C@@H](C)CC)C(=O)N[C@H](C(=O)N[C@@H](CO)C(=O)N[C@H]1C(=O)N[C@@H](C)C(=O)N[C@@H](CCCNC(=N)N)C(=O)N[C@@H]([C@@H](C)CC)C(=O)O[C@H]1C)[C@@H](C)CC [Compound 7],MIC (MRSA*),[7],>128 µg/mL
"CC[C@@H](C)[C@@H](NC(=O)[C@@H](CCCNC(=N)N)NC(=O)[C@H](CO)NC(=O)[C@@H](NC(=O)[C@@H](Cc1ccccc1)NC)[C@@H](C)CC)C(=O)N[C@H](C(=O)N[C@@H](CO)C(=O)N[C@H]1C(=O)N[C@@H](C)C(=O)N[C@@H](C)C(=O)N[C@@H]([C@@H](C)CC)C(=O)O[C@H]1C)[C@@H](C)CC [Compound 53, D-Arg4-Ala10-teixobactin]",MIC (MRSA),[7],4 µg/mL
"CCC[C@@H]1NC(=O)[C@H](C)NC(=O)[C@H](NC(=O)[C@H](CO)NC(=O)[C@@H](NC(=O)[C@H](NC(=O)[C@@H](CCC(N)=O)NC(=O)[C@H](CO)NC(=O)[C@@H](NC(=O)[C@@H](Cc2ccccc2)NC)[C@@H](C)CC)[C@H](C)CC)[C@@H](C)CC)[C@H](C)OC(=O)[C@H]([C@@H](C)CC)NC1=O [Compound 44, Nva10-teixobactin]",MIC (MRSA),[7],0.5 µg/mL
"CC[C@@H](C)[C@@H](NC(=O)[C@@H](CCC(N)=O)NC(=O)[C@H](CO)NC(=O)[C@@H](NC(=O)[C@@H](Cc1ccccc1)NC)[C@@H](C)CC)C(=O)N[C@H](C(=O)N[C@@H](C)C(=O)N[C@H]1C(=O)N[C@@H](C)C(=O)N[C@@H](CCCNC(=N)N)C(=O)N[C@@H]([C@@H](C)CC)C(=O)O[C@H]1C)[C@@H](C)CC [Compound 13, reference compound] (H-[dNMeF]IS[dQ][dI]IA[dT]ARI; ester 8-C)",MIC (MRSA*),[7],16 to 32 µg/mL
"CC[C@@H](C)[C@@H](NC(=O)[C@@H](CCC(N)=O)NC(=O)[C@H](CCCNC(=N)N)NC(=O)[C@@H](NC(=O)[C@@H](Cc1ccccc1)NC)[C@@H](C)CC)C(=O)N[C@H](C(=O)N[C@@H](CO)C(=O)N[C@H]1C(=O)N[C@@H](C)C(=O)N[C@@H](C2CCCCC2)C(=O)N[C@@H]([C@@H](C)CC)C(=O)O[C@H]1C)[C@@H](C)CC [Compound 37, Arg3-Chg10-teixobactin]",MIC (MRSA),[7],0.5 µg/mL
"CC[C@@H](C)[C@@H](NC(=O)[C@@H](CCCNC(=N)N)NC(=O)[C@H](CO)NC(=O)[C@@H](NC(=O)[C@@H](Cc1ccccc1)NC)[C@@H](C)CC)C(=O)N[C@H](C(=O)N[C@@H](CO)C(=O)N[C@H]1C(=O)N[C@@H](C)C(=O)N[C@@H](C2CCCCC2)C(=O)N[C@@H]([C@@H](C)CC)C(=O)O[C@H]1C)[C@@H](C)CC [Compound 38, D-Arg4-Chg10-teixobactin]",MIC (MRSA),[7],0.5 µg/mL
"CCC[C@@H]1NC(=O)[C@H](CCCNC(=N)N)NC(=O)[C@H](NC(=O)[C@H](CO)NC(=O)[C@@H](NC(=O)[C@H](NC(=O)[C@@H](CCCNC(=N)N)NC(=O)[C@H](CO)NC(=O)[C@@H](NC(=O)[C@@H](Cc2ccccc2)NC)[C@@H](C)CC)[C@H](C)CC)[C@@H](C)CC)[C@H](C)OC(=O)[C@H]([C@@H](C)CC)NC1=O [Compound 50, D-Arg4-Arg9-Nva10-teixobactin] (H-[dNMeF]IS[dR][dI]IS[dT]R[Nva]I; ester 8-C)",MIC (MRSA),[7],0.5 µg/mL
